The record followed here is US10966964B2, “Method for preparing pharmaceutical composition comprising pyrrolo-fused six-membered heterocyclic compound” (Jiangsu Hengrui Medicine Co., Ltd., priority 2016, dated 2021).

The nature of this data set: Water solubility and moisture stability of the active ingredient (statement). In kind it is physicochemical. The following applies: compound of formula (I) or a pharmaceutically acceptable salt thereof. From the text:
Since the compound of formula (I) or a pharmaceutically acceptable salt thereof has poor water solubility, and is unstable in the presence of moisture, water cannot be used as a solvent for wet granulation. When the compound of formula (I) or a pharmaceutically acceptable salt thereof is formulated into a pharmaceutical composition by using a conventional preparation method, the resulting composition is difficult to dissolve rapidly and keep its quality stable. There is a need to find a suitable method to obtain a stable composition with a rapid dissolution.

For `CCN(CC)CCN1CCc2[nH]c(/C=C3\C(=O)Nc4ccc(F)cc43)c(C)c2C1=O.O=C(O)C[C@H](O)C(=O)O` [compound of formula (I), 5-(2-diethylamino-ethyl)-2-(5-fluoro-2-oxo-1,2-dihydro-indol-3-ylidene-methyl)-3-methyl-1,5,6,7-tetrahydro-pyrrolo[3,2-c]pyridin-4-one], the “stability in the presence of moisture (in words)” value is “unstable” and the “water solubility (in words)” value was “poor”.
